# From patent US6355823B1 (Board of Regents, The University of Texas System, priority 1999, dated 2002)
# Assays:
# [1] = biological target: intestinal brush border membrane alkaline phosphatase (Oryctolagus cuniculus, UniProt G1SXE4); assay: biochemical; type: biochemical
# [2] = system: rats with normal renal function; assay: Second 2-week study of 2′-PP in drinking water (FIG. 10, 11); type: in vivo, rat
# Protocol: Serum phosphate again decreased in a 2′-PP concentration-dependent manner immediately after its addition to the rats' drinking water. After 2 weeks on 2′-PP, serum phosphate was reduced to between 1.8 mM on 1 μM 2′-PP and 1.2 mM at 25 μM 2′-PP. […] This decrease in serum calcium may be related to a slight volume expansion. The rats receiving 5 μM or higher concentrations of 2′-PP drank 2-4 times more water than normal for the first 4 days of the study. After the first 4 days, water consumption returned to normal.
# [3] = Radioactivity in urine, stool, kidney and liver after [3H]2′-PP; type: in vivo, rat
# Protocol: Ten rats with normal renal function were treated with varied amounts of [^3H]2′-PP by gavage for seven days. The 2′-PP was given once/day in a solution containing 270 mM sucrose and 10 mM Tris-Cl pH 7.4. Blood was withdrawn 1, 4, and 7 days from the start of the treatment and analyzed for serum phosphate and serum calcium, with the results shown in Table 1. A second, one-week trial was performed adding 2′-PP to the drinking water. Blood was withdrawn at 1, 4 and 7 days and assayed for calcium and phosphate. Dietary phosphorus was increased from 0.9% to 5% for one week, and the experiment repeated at the elevated dietary phosphorus with 2′-PP added to the drinking water for an additional two weeks. The amount of radioactivity in the urine and stool as examined. After two weeks, the animals were sacrificed, and the kidney and liver were examined for radioactivity.
# After 4 weeks on 2′-PP, the rats were sacrificed and their kidneys and liver examined for radioactivity. […] A crude estimate of 2′-PP turnover time was calculated from the amount of radioactivity in the stool after administration of [^3H]2′-PP was discontinued; and the 2′-PP half-life was estimated as 12±1 hr.
# [4] = system: rats on a 0.9% phosphorus diet; assay: Serum phosphate after withdrawal of 2′-PP (in vivo half-life); set-up: species or system rat
# Protocol: Rats on a 0.9% phosphorus diet were given 10 μM [^3H]2′-PP in their water for 2 weeks. Serum phosphate and calcium were determined by spectrophotometric assays. Following the experimental period, 2′-PP was removed from the water, and the stool was examined for radioactivity at days 1, 3, 5 and 8, and serum phosphate was examined.
# The apparent half-time to return to normal serum phosphate levels was approximately 3 days. […] During this maturation period, crypt cells express the intestinal brush border membrane Na/phosphate co-transporter.
# [5] = biological target: T1, intestinal BBM Na/phosphate co-transporter (Oryctolagus cuniculus, UniProt G1SIP4)
# T1 sequence (G1SIP4 25-715): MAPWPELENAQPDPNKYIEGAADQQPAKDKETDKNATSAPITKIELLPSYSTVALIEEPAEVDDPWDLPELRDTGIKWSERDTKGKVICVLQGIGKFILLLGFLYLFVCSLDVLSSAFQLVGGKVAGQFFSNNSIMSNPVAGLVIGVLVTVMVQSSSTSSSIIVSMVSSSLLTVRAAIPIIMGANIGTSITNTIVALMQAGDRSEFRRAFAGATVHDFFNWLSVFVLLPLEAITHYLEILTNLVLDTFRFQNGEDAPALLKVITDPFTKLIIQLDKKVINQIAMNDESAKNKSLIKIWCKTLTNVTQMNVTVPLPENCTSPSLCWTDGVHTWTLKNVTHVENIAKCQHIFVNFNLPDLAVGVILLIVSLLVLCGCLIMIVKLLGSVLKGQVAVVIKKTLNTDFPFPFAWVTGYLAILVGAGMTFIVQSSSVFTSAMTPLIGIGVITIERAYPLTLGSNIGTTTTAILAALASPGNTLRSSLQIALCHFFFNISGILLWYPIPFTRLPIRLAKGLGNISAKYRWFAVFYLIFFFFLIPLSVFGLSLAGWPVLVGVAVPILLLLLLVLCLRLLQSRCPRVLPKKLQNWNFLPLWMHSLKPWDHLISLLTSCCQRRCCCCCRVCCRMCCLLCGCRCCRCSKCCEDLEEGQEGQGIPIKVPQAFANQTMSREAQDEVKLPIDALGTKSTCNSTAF
# [6] = biological target: T2, intestinal Na/phosphate co-transporter (Oryctolagus cuniculus, UniProt G1SIP4); assay: Na-dependent [32P]phosphate uptake by rabbit intestinal brush border membrane (BBM) vesicles
# T2 sequence (G1SIP4 1-715): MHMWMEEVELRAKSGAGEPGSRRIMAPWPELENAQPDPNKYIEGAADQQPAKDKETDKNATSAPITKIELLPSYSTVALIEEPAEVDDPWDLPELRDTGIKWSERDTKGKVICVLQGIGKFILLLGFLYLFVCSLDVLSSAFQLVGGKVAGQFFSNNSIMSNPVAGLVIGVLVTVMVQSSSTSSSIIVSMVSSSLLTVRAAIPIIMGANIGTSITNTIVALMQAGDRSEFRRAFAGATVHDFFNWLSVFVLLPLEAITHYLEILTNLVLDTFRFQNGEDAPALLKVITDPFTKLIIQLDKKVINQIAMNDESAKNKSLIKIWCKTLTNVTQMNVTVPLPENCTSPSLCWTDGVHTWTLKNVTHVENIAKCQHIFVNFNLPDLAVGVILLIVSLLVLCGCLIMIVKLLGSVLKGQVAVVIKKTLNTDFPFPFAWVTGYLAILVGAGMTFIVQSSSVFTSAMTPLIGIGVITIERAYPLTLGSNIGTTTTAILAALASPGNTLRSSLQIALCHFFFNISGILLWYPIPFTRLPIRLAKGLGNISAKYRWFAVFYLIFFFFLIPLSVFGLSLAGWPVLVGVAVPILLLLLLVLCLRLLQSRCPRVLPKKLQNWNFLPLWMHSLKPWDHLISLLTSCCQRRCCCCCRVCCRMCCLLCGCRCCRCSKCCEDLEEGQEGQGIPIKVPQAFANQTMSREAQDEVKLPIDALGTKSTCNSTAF
# [7] = 10 μM [3H]2′-PP in water for 2 weeks, then removed
# Chain of intestinal brush border membrane alkaline phosphatase (G1SXE4 25-504): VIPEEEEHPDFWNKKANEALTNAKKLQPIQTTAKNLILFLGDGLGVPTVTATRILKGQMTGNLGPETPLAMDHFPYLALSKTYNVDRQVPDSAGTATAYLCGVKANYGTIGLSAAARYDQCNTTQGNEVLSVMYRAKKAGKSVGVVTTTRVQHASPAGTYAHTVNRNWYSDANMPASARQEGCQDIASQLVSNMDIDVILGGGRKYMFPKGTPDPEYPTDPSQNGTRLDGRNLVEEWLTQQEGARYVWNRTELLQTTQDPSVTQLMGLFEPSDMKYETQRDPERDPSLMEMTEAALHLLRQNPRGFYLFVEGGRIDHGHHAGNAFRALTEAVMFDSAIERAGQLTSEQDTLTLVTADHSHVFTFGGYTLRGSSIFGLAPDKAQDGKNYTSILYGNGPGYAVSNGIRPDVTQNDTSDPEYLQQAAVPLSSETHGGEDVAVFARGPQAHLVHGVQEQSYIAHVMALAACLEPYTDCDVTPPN
compound,measurement,setting,value
O=C(CCc1ccc(O)cc1)c1c(O)cc(O)cc1OP(=O)(O)O,substrate of alkaline / apical membrane phosphatase,[1],substrate of alkaline phosphatase
same,type of inhibition of alkaline phosphatase,[1],competitive inhibitor
same,inhibition at 50 µM,[1]; read-out: inhibition of alkaline phosphatase,33%
same,water consumption relative to normal,"[2]; 5 μM or higher concentrations of 2′-PP, first 4 days of the study",2-4 times
same,Serum calcium,[2]; 2′-PP concentrations of 5 μM and higher,significant decrease
same,Serum phosphate,[2]; after 2 weeks at 25 μM 2′-PP in drinking water,1.2 mM
same,Serum phosphate,[2]; after 2 weeks on 1 μM 2′-PP in drinking water,1.8 mM
same,"radioactivity in the urine, kidney, or the liver",[3]; after 4 weeks on [3H]2′-PP,No measurable radioactivity
same,permeation across the intestinal membrane,[3]; at the concentrations tested,relatively impermeant
same,2′-PP half-life (turnover time),[3]; crude estimate from radioactivity in the stool after [3H]2′-PP was discontinued,12 ± 1 h
same,apparent half-time to return to normal serum phosphate levels,[4]; [7],approximately 3 days
same,time for serum phosphate to return to normal (control) level after withdrawal,[4]; [7],five
same,inhibition at 10 µM,"[4]; Rattus norvegicus, 10 μM 2′-PP administered daily, read-out: inhibition of the Na/phosphate co-transporter in vivo",~100%
same,2′-PP bound (kinetic analysis of trace B),[5],8.5 pmoles 2′-PP bound/mg protein
same,2′-PP bound at infinite osmotic strength,[5],8±0.6 pmoles of 2′-PP bound/mg protein
same,2′-PP bound in the absence of Na,[5],0.12±0.005 pmoles 2′-PP bound/mg protein
same,Hill coefficient nH of Na effect on 2′-PP binding,[5],1.9±0.25
same,[3H]2′-PP binding sites,[5],9 pmoles [^3H]2′-PP bound/mg protein
same,apparent K0.5 for Na (Na concentration at 50% 2′-PP bound),[5],23 ± 3 mM
same,transport by the Na/phosphate co-transporter,[5],not transported
same,Ki,[6],0.59 ± 0.08 µM
same,type of inhibition of Na-dependent phosphate uptake,"[6]; Dixon plot, with respect to phosphate",competitive with respect to phosphate
same,change in apparent k0.5 for inhibition of Na-dependent [32P]phosphate uptake after pre-incubation with Ca-BBM,[6]; incubations of up to 10 minutes at 23° C.,no measurable change
